Earlier results as cited in patent US7659300B2, “Monocyclic anilide spirolactam CGRP receptor antagonists” (Merck Sharp & Dohme Corp., priority 2004, dated 2010).
No end group written: not given here.

Assays:
middle meningeal artery = conditions: rats, electrical stimulation of the dura mater, prior administration (Williamson et al. 1997)
facial blood flow [1] = conditions: rat, trigeminal ganglion stimulation (Escott et al. 1995)
facial blood flow [2] = conditions: marmoset, electrical stimulation of the trigeminal ganglion (Doods et al. 2000)
migraine = conditions: clinical studies, intravenously administered (Olesen et al. 2004)

Row | Compound | increase of the diameter of the middle meningeal artery (middle meningeal artery) | increase of facial blood flow (facial blood flow [1]) | increase in facial blood flow (facial blood flow [2]) | acute treatment of migraine (migraine)
1 | CGRP(8-37): a peptide CGRP antagonist; fragment of CGRP that lacks seven N-terminal amino acid residues (VTHRLAGLLSRSGGVVKNNFVPTNVGSKAF; ends and bridges not checked; UniProt P06881 90-119, looked up, fragment) | blocked | inhibited | – | –
2 | NCCCC[C@H](NC(=O)[C@@H](Cc1cc(Br)c(O)c(Br)c1)NC(=O)N1CCC(N2Cc3ccccc3NC2=O)CC1)C(=O)N1CCN(c2ccncc2)CC1 [BIBN4096BS] | – | – | blocked | safe and effective acute treatment for migraine
